Assay results taken from article PMC3726599, “A Metabolically-Stabilized Phosphonate Analog of Lysophosphatidic Acid Attenuates Collagen-Induced Arthritis” (PLoS ONE, 2013).

Target: T1, recombinant ATX (Homo sapiens, UniProt Q13822)
T1 construct: purchased SinoBiological Inc (main data); R&D (additional Km values)
Assay: TOOS activity assay, LPC hydrolysis by recombinant ATX
Type: biochemical
Details: for Vmax of ATX in presence of BrP-LPA: 16:0 LPC 100–400 μΜ, mean(std); for % Inhibition at 10 μΜ: BrP-LPA 10 μΜ; for IC50: [S] 50 μΜ, 2 nM ATX
Experimental: ATX/LysoPLD activity was assessed based on the amount of choline released from LPC with the use of TOOS (N-ethyl-N-(2-hydoroxy-3-sulfopropyl)-3-methylaniline) reagent. In this assay ATX-mediated LPC-liberated choline is oxidised by choline oxidase to betaine and hydrogen peroxide (H2O2). The latter in the presence of horseradish peroxidase reacts with TOOS and 4-aminoantipyrene (4-AAP) to form a pink quinoneimine dye measured at 555 nm.
Diluted plasma samples (100 fold dilution; final EDTA concentration 0.5 mM) or recombinant ATX protein (2 nM) were incubated with LPC in the presence of 100 mmol/l Tris–HCl/pH 9.0, 500 mmol/l NaCl, 5 mmol/l MgCl2, 5 mmol/l CaCl2, 60 μM CoCl2 and 0.05% Triton X-100 for 3 h at 37°C at a final volume of 100 μl. It should be noted that EDTA was used not only as an anticoagulant but also as an inhibitor of ATX activity ex vivo [46], in order to suppress artificial LPA production during blood withdrawal and plasma preparation; this is because the same samples were used in phospholipid measurements.
The liberated choline was detected by adding 100 μl of a color mix containing 4-AAP and TOOS (0.3 mM), horseradish peroxidase (5.3 UnitmL^−1) and choline oxidase (2 UnitmL^−1). Absorbance was measured at 555 nm and data were analyzed using the statistical software package Prism 4.0 (Graphpad Software Inc, La Jolla, CA, USA). For each sample and control the absorbance was plotted against time and the slope (da/min) for the linear (steady-state) portion of each reaction profile was calculated. Absorbance units were converted to nmol of choline/min/ml by comparison with a choline standard curve or by use of the extinction coefficient for the quinoneimine dye according to the following equation: [drawing 1] Where Vt* is the total volume of reaction in ml (0.2 ml); Vs* is the volume of sample in ml; e is the millimolar extinction coefficient of quinoneimine dye under the assay conditions (e = e = […]); and 1/2: Factor based on the fact that 1 mol of hydrogen peroxide produces 1/2 mol of quinoneimine dye.
The biochemistry of lyso-PLD was assessed by following the kinetics data using a wide panel of different ATX substrates [FS-3, different LPC species (14:0, 16:0, 18:0, 18:1)], three different recombinant ATX proteins (R&D, Sino-Biological and Echelon) and three different ATX activity assays (FS-3, TOOS, Amplex Red). The ATX activity was measured at different substrate concentrations (typically from 1-1000 μM) in order to examine whether ATX follows Michaelis-Menten kinetics. The Michaelis constant (Km) was obtained by fitting the substrate dependence of V (ATX activity) to a rectangular hyperbola using the non-linear regression analysis of the statistical software package Prism 4.0 (GraphPad Software, Inc.). Km and Vmax were evaluated from the rectangular hyperbola curve with the use of GraphPad software.
For in vitro inhibition measurements, BrP-LPA was dissolved in water as a stock solution (4 mM) and appropriate dilutions were made in water. The inhibition of ATX by BrP-LPA was measured employing 2 nM recombinant ATX, 50 μΜ LPC (14:0, 16:0, 18:0) and 0.01 to 100 μmol/L of BrP-LPA (final concentrations). The in vitro inhibition of ATX by BrP-LPA was evaluated with three different assays (FS-3, Amplex Red, and TOOS). […] BrP-LPA was also tested for its ability to inhibit mouse plasma ATX activity. Diluted mouse plasma was used as the source of ATX and the analysis of inhibition was made with TOOS as the in vitro inhibition assay.
The inhibition model (competitive, noncompetitive, or mixed type inhibition) was evaluated by graphical analysis with Lineweaver–Burk double reciprocal plots (1/[velocity] versus 1/[substrate]) and Cornish-Bowden plot ([substrate]/[velocity] versus [Inhibitor]). These plots were generated by the measurement of ATX activity in the presence of different BrP-LPA concentrations (0–10 μΜ) and increased amounts of 16:0 LPC (100, 200, 400 μΜ). […]

`CCCCCCCCCCCCCCCC(=O)OC[C@@H](O)CC(Br)P(=O)(O)O` (stereo partly drawn) [BrP-LPA, 1-bromo-3(S)-hydroxy-4-(palmitoyloxy)butyl-phosphonate] was tested, and the “mode of inhibition of ATX lysoPLD activity” value (16:0 LPC as substrate, Cornish-Bowden and Lineweaver-Burk plots) was “competitive”, the “Vmax of ATX in presence of BrP-LPA” value (BrP-LPA 1 μM) was 51(3) nmole/min/ml and the “Vmax of ATX in presence of BrP-LPA” value (BrP-LPA 3 μM) was 71(4) nmole/min/ml. For the same compound, the “Vmax of ATX in presence of BrP-LPA” value (BrP-LPA 10 μM) was 54(13) nmole/min/ml, the “% Inhibition at 10 μΜ” value (TOOS, 16:0 LPC 50 μΜ) was 80% and the “% Inhibition at 10 μΜ” value (TOOS, 18:0 LPC 50 μΜ) was 70%. For the same compound, the Ki (TOOS, 18:0 LPC, Cheng-Prusoff from IC50) was 600 ± 110 nM, the IC50 (TOOS, substrate 16:0 LPC, mean±std of two experiments) was 700 ± 200 nM and the IC50 (TOOS, substrate 18:0 LPC, mean±std) was 900 ± 100 nM.
